In data set [1] the test system is C. albicans. Put plainly: MIC assays (CLSI M27 broth microdilution). Format: cell-based, Candida albicans. The settings on record: for MIC: Candida albicans. The method, then: The MIC assays for C. albicans were conducted following the broth microdilution protocol outlined by the Clinical and Laboratory Standards Institute (CLSI) protocols (M27, 4th edition). In brief, FDA-approved drugs were diluted in 96-well plates at two-fold the final concentration, with 4 μg/mL FLC. This dilution was combined with the cell suspension with a concentration of 1 × 10^3 cells/mL. The plates were incubated at a temperature of 30 °C for 48 h without agitation.
A general note: Dilution methods test growth across graded concentrations, often in twofold steps.

Data set [2] concerns C. albicans. In words: Determination of MFC. Format: cell-based, Candida albicans. The settings on record: for MFC: Candida albicans. The method, then: The determination of MFC followed the previously described method. In brief, a tested drug at a concentration two times higher than the final concentration was diluted in a two-fold serial dilution manner across ten columns of the plate, with each well containing 100 μL of the drug. Subsequently, 100 μL of C. albicans cultures (1 × 10^4 cells/mL) were transferred into wells with and without any drugs as the control. Following incubation at 30 °C for 48 h, a 200 μL aliquot per well was removed and evenly spread on SDA plates, which were then incubated at 30 °C for 48 h. The MFC value was determined as the lowest drug concentration at which 99.9% of fungal colonies were eradicated compared to the control group.

Data set [3] concerns C. albicans clinical isolates. In words: Supra-MIC growth (SMG) of FLC in clinical isolates. Type of data set: cell-based, Candida albicans. The settings on record: n = 7 isolates.
Data set [4] concerns Candida glabrata clinical isolates. In words: Supra-MIC growth (SMG) of FLC in clinical isolates. The settings on record: n = 4 isolates. Type of data set: cell-based.
Data set [5] concerns Candida guilliermondii clinical isolates. In words: Supra-MIC growth (SMG) of FLC in clinical isolates. Format: cell-based. The conditions noted are these: n = 7 isolates.
Data set [6] has as its system C. albicans. Put plainly: Murine invasive C. albicans infections (C57BL/6 mice). Type of data set: in vivo, Candida albicans. The method, then:
. Before commencing drug therapy, the mice were inoculated with 200 μL of PBS containing 2 × 10^5 C. albicans cells via the lateral tail vein. […]. The mice were weighed, and their weights were recorded every three days while their survival was monitored daily for 30 days. Two-tailed unpaired t-tests were employed to assess the weight changes. Kaplan–Meier analyses were employed to assess the survival probabilities, while log-rank testing was utilized to determine the statistical significance of the survival curves. In the case of fungal burden analyses, the mice were closely monitored twice daily for any indications of infection and were euthanized humanely upon reaching the predetermined endpoints. Subsequently, each mouse’s spleen, liver, and kidneys were harvested and homogenized in sterile PBS after sacrifice, followed by streaking onto SDA agar plates. Following a 48 h incubation period, the colonies were quantified, and colony-forming units (CFUs) were calculated. For histopathological analysis, kidney tissues from mice infected for 6 or 10 days were procured and fixed in buffered formalin. Subsequently, the tissues were embedded in paraffin, sectioned into 3–4 μm slices, and subjected to PAS staining using established protocols. All experimental procedures involving animals were approved by the Tongji University Animal Care Committee (No.: TJAA00322101).

The subject of data set [7] is C. albicans. Put plainly: Broth microdilution assay of synergistic lethality with 4 μg/mL FLC (recovery on drug-free YPD). Format: cell-based, Candida albicans. The settings on record: with 4 μg/mL FLC; tested 100 μM to 0.1953 μM; 30 °C, 48 h.
The test system of data set [8] is C. albicans. Put plainly: Dose–matrix titration assays (synergy, with YPD recovery plates). Type of data set: cell-based, Candida albicans. The conditions noted are these: FLC ≤4 μg/mL; YPD, 30 °C, 48 h. The method, then: The synergistic effects of drugs were conducted following the same procedure as the MIC assays. Specifically, 50 μL of drug A was distributed through two-fold serial dilution across seven plate columns. Subsequently, 50 μL of drug B was distributed in a two-fold serial dilution manner along seven rows of the plate. Furthermore, 100 μL of C. albicans cultures, adjusted to a density of 1 × 10^3 cells/mL, was dispensed into wells containing drugs and one control well devoid of any drugs. Before the 48 h OD600 readings, the plates were subjected to meticulous agitation to ensure the deposition of a representative 2 μL aliquot from each well onto newly prepared YPD recovery plates, thereby facilitating the evaluation of cellular recuperation following drug treatments. The recovery plates were subsequently incubated at a temperature of 30 °C for a duration ranging from 24 to 48 h, after which they were photographed. The experimental procedures were conducted in triplicate to ensure reliability and reproducibility.

Data set [9] has as its system C. albicans SC5314, SN152, cmp1-aid∆/cmp1-aid∆, and PADH1-UPC2 strains. In words: FLC disk diffusion assays (25 μg FLC disk, 5 μM adjuvant). Format: cell-based, Candida albicans. The conditions noted are these: SC5314, SN152, cmp1-aid∆/cmp1-aid∆, PADH1-UPC2. As for the experimental part: Yeast cells were cultured overnight at a temperature of 30 °C, and the resulting cell suspension was diluted to a concentration of 1 × 10^7 cells/mL in phosphate-buffered saline (PBS). At a concentration of 5 μM, the drugs were individually added to YPD plates for disk assays using a 25 μg FLC disk (6 mm, Liofilchem, Roseto degli Abruzzi, Italy). The plates were then incubated at 30 °C for 48 h. Subsequently, the disk was transferred to a drug-free YPD plate, which was incubated at 30 °C for 24 h and photographed.
On the technique in general: A growth-free zone around the sample is the usual read-out of agar diffusion tests.

The nature of data set [10]: Acute toxicity, Up-and-Down procedure (OECD 425), intraperitoneal. Type of data set: in vivo. The settings on record: C57BL/6, mouse, in vivo, ip, mice. As for the experimental part: Following a previously described methodology, the intraperitoneal route was employed in adult mice. In brief, the primary test involved a sequential administration of doses at intervals of at least 48 h, with one mouse being dosed at a time. Initially, a dose below LD50 was administered intraperitoneally to a mouse. If the mouse survived, the subsequent mouse would receive 1.3 times the initial dose. Conversely, if the mouse died, the subsequent mouse would receive a dose decreased by 1.3 times the initial dose. Each mouse was monitored for 48 h before determining the subsequent mouse’s dosage and administration. The experiment was terminated upon five “survive or die” reversals within a consecutive set of six animals tested. Subsequently, the LD50 and its corresponding confidence interval were computed based on the conditions observed in all mice after the experiment.

Data set [11] concerns ERG1, ERG11, and ERG251 genes. Format: cell-based, Candida albicans. The settings on record: 2 μM PIT alone, 8 h.
For data set [12], the system named is C. albicans. In words: Spotting assay. Type of data set: cell-based, Candida albicans. The settings on record: 4 μM PIT; compared to wild-type strain and other heterozygous gene deletion mutants. As for the experimental part:
The spotting assays were conducted following the previously described method. In summary, C. albicans cultures were adjusted to a cell density of 1 × 10^7 cells/mL using a hemacytometer. Subsequently, the cultures were serially diluted 1:10 and spotted onto a designated YPD solid medium containing specified concentrations of compounds. Following incubation at 30 °C for 48 h, photographs capturing the cell growth were taken, and the assays were replicated thrice.

Like-named read-outs stand apart in the source and are kept apart here.

`OC(Cn1cncn1)(Cn1cncn1)c1ccc(F)cc1F` [FLC, Fluconazole]: the MIC worked out at 1 µg/mL in data set [1] (SEC14/sec14△, YPD + 0.5 μM PIT, read-out: MIC of FLC); 0.5 µg/mL in data set [1] (SEC14/sec14△, YPD + 1 μM PIT, read-out: MIC of FLC); 1 µg/mL in [1] (SEC14/sec14△, YPD, read-out: MIC of FLC); 1 µg/mL in data set [1] (SN152, YPD, read-out: MIC of FLC); 0.25 µg/mL in data set [1] (read-out: MIC of FLC, age3△/age3△, YPD + 0.5 μM PIT); 0.125 µg/mL in data set [1] (read-out: MIC of FLC, age3△/age3△, YPD + 1 μM PIT). Moreover, the minimal fungicidal concentration (MFC) was greater than 64 µg/mL in data set [2] (absence of PIT) and 2 µg/mL in [2] (in the presence of PIT (1 μM)). In data set [2] (in the presence of 1 μM PIT), the “ratio of MFC to MIC of FLC” value amounted to 4. In addition, the “SMG value of FLC” value in data set [3] (FLC alone) is on record as 0.1203; in data set [3] (in combination with PIT, p = 0.002) it was 0; in data set [4] (FLC alone), 0.3169; in data set [4] (in combination with PIT, p = 0.0442), 0.0031; in data set [5] (FLC alone) it was 0.0667; in [5] (in combination with PIT, p = 0.0362), 0.0166. Moreover, the “kidney fungal burden in cmp1-aidΔ/cmp1-aidΔ infected group compared to cmp1Δ/cmp1Δ infected group” value in [6] (after 1 mg/kg FLC ip for 3 days, 6 or 10 days after infection) is given as “notably greater”. For the same compound, the mortality rate in [6] (clinical isolate 283, FLC 4 mg/kg, PIT 3 mg/kg, 30-day observation period) is reported as 50%. In data set [6] (clinical isolate 283, FLC 4 mg/kg, PIT 3 mg/kg, ten mice per group), the “average weight loss on the 15th day of infection” value was determined as 1.16 ± 0.63 g.

Turning to `O=C(O)C[C@H](O)C[C@H](O)/C=C/c1c(C2CC2)nc2ccccc2c1-c1ccc(F)cc1` [PIT, pitavastatin calcium], in data set [7], the “synergistic lethal concentration (converts FLC from fungistatic to fungicidal)” value was no more than 6.25 µM. Moreover, the “concentration that renders FLC fungicidal (no recovery on YPD solid medium)” value in data set [8] is no more than 3.125 µM. Besides, the “effect on FLC tolerance in FLC disk diffusion, all four strains” value in data set [9] was “made FLC fungicidal”. The 50% lethal dose (LD50) at 48 h in [10] is 104 mg/kg. The “antifungal efficacy of PIT with exogenous ergosterol” value in data set [1] (100 μM exogenous ergosterol, SN152, MIC and spotting assays) is listed as “negated”. The “antifungal effects of PIT with exogenous mevalonate” value in data set [1] (100 μM exogenous mevalonate, SN152, MIC and spotting assays) was “mitigated”. In addition, the MIC was found to be 2 µM in data set [1] (SEC14/sec14△, YPD, read-out: MIC of PIT); 2 µM in data set [1] (SN152, YPD, read-out: MIC of PIT); 2 µM in [1] (age3△/age3△, YPD, read-out: MIC of PIT); 3.12 µg/mL in data set [1] (control strain (wild-type), read-out: MIC of PIT); 2 µM in data set [1] (hac1△/hac1△, YPD, read-out: MIC of PIT); 2 µM in data set [1] (hse1△/hse1△, YPD, read-out: MIC of PIT). Further, the MIC in [1] (ire1△/ire1△, YPD, read-out: MIC of PIT) amounted to 2 µM; in data set [1] (mvb12△/mvb12△, YPD, read-out: MIC of PIT), 2 µM; in data set [1] (read-out: MIC of PIT, erg11∆/erg11∆ null mutant), 0.195 µg/mL; in data set [1] (snf7△/snf7△, YPD, read-out: MIC of PIT), 2 µM; in data set [1] (vps20△/vps20△, YPD, read-out: MIC of PIT) it was 2 µM; in data set [1] (vps22△/vps22△, YPD, read-out: MIC of PIT), 2 µM. Moreover, the MIC is 2 µM in data set [1] (vps23△/vps23△, YPD, read-out: MIC of PIT); 2 µM in data set [1] (vps28△/vps28△, YPD, read-out: MIC of PIT); 2 µM in data set [1] (vps36△/vps36△, YPD, read-out: MIC of PIT). Further, the “concentration of PIT that renders FLC fungicidal” value in data set [2] (as low as) stood at 1 µM. In addition, the “mRNA expression level of ERG1 gene, upregulation” value in [11] amounted to 2 fold. Further, the “mRNA expression level of ERG11 gene, upregulation” value in data set [11] came out at 2 fold. Besides, in data set [11], the “mRNA expression level of ERG251 gene, upregulation” value was determined as 2 fold. Further, the “susceptibility of HMG1/hmg1Δ, ERG8/erg8Δ and IDI1/idi1Δ mutants to PIT” value in data set [12] is “more susceptible”.

The MFC is the lowest tested concentration that kills the fungus rather than only halting it. The term LD50 denotes the dose expected to kill half of the subjects tested. A low value points to a more toxic substance.
